Assay results reported in US20070117743A1, “New antitumoral compounds” (priority 2003, published 2007).

Legend:
Format in all cases: cell-based, human
Conditions in all cases: 48 hours exposure, SRB
LoVo-Dox = experiment: SRB colorimetric assay of cell growth and viability, LoVo-Dox
Procedure, shortened: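 Absorbance at 490 nm of Tris-solubilized sulforhodamine B gives the read-out after cells are fixed with cold 50% TCA for 60 min at 4° C. Compound exposure lasts 48 hours over 10 to 10^−8 μg/mL. Growth inhibition, total growth inhibition and lethal concentration are calculated from triplicate wells.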

SK-BR-3 = experiment: SRB colorimetric assay of cell growth and viability, SK-BR-3
LNCaP = experiment: SRB colorimetric assay of cell growth and viability, LNCaP
IGROV-1 = experiment: SRB colorimetric assay of cell growth and viability, IGROV-1
HeLa = experiment: SRB colorimetric assay of cell growth and viability, HeLa
IGROV-ET = experiment: SRB colorimetric assay of cell growth and viability, IGROV-ET
LoVo = experiment: SRB colorimetric assay of cell growth and viability, LoVo
HeLa-APL = experiment: SRB colorimetric assay of cell growth and viability, HeLa-APL
DU-145 = experiment: SRB colorimetric assay of cell growth and viability, DU-145
PANC-1 = experiment: SRB colorimetric assay of cell growth and viability, PANC-1
SK-MEL-28 = experiment: SRB colorimetric assay of cell growth and viability, SK-MEL-28
A-549 = experiment: SRB colorimetric assay of cell growth and viability, A-549
HT-29 = experiment: SRB colorimetric assay of cell growth and viability, HT-29

For `C/C=C1\NC(=O)[C@H](Cc2c(F)c(F)c(F)c(F)c2F)NC(=O)[C@@H](C(C)C)NC(=O)[C@@H]([C@@H](C)CC)NC(=O)[C@H](NC(=O)[C@H](NC(=O)[C@H](CCCN)NC(=O)[C@H]2CCCN2C(=O)[C@H](NC(=O)[C@@H](NC(=O)[C@@H](NC(=O)[C@H](NC(=O)CC[C@@H](C)CC)C(C)C)[C@@H](C)O)C(C)C)C(C)C)[C@@H](C)CC)[C@@H](C)OC(=O)[C@H](C(C)C)NC1=O` [Compound 71, [Phe(F5)^3, (4S)-MeHex^14]-KF], the GI50 (LoVo-Dox) was 184 nM, the “TGI LOVO-DOX” value (LoVo-Dox) was 2.90E−07 Molar and the CC50 (LoVo-Dox; read-out: LC50 LOVO-DOX) was 456 nM. For the same compound, the GI50 (SK-BR-3) was 228 nM, the LC50 (SK-BR-3) was 554 nM and the “TGI SK-BR-3” value (SK-BR-3) was 3.56E−07 Molar. The “TGI LN-caP” value (LNCaP) was 1.12E−06 Molar, the GI50 (LNCaP; read-out: GI50 LN-caP) was 394 nM and the CC50 (LNCaP; read-out: LC50 LN-caP) was 2700 nM. The GI50 (IGROV-1) was 526 nM, the LC50 (concentration causing 50% net cell killing) (IGROV-1) was 2720 nM and the “TGI IGROV” value (IGROV-1) was 1.21E−06 Molar. The GI50 (HeLa) was 836 nM, the “TGI HELA” value (HeLa) was 1.63E−06 Molar and the CC50 (HeLa; read-out: LC50 HELA) was 3160 nM. The GI50 (IGROV-ET) was 443 nM, the “TGI IGROV-ET” value (IGROV-ET) was 5.35E−07 Molar and the CC50 (IGROV-ET; read-out: LC50 IGROV-ET) was 848 nM. The GI50 (LoVo) was 166 nM, the “TGI LOVO” value (LoVo) was 2.77E−07 Molar and the CC50 (LoVo; read-out: LC50 LOVO) was 462 nM. The GI50 (HeLa-APL) was 1330 nM, the “TGI HELA-APL” value (HeLa-APL) was 2.22E−06 Molar and the CC50 (HeLa-APL; read-out: LC50 HELA-APL) was 3700 nM. For the same compound, the GI50 (DU-145) was 1220 nM, the LC50 (concentration causing 50% net cell kill) (DU-145) was 3640 nM and the “TGI DU-145” value (DU-145) was 2.11E−06 Molar. The GI50 (PANC-1) was 1560 nM, the “TGI PANC-1” value (PANC-1) was 4.41E−06 Molar and the CC50 (PANC-1; read-out: LC50 PANC-1) was 6380 nM. The GI50 (SK-MEL-28) was 1520 nM, the “TGI MEL-28” value (SK-MEL-28) was 2.40E−06 Molar and the CC50 (SK-MEL-28; read-out: LC50 MEL-28) was 3800 nM. For the same compound, the “TGI A-549” value (A-549) was 2.62E−06 Molar, the GI50 (A-549; read-out: GI50 A-549) was 1750 nM and the CC50 (A-549; read-out: LC50 A-549) was 3920 nM. For the same compound, the “TGI HT-29” value (HT-29) was 9.82E−07 Molar, the GI50 (HT-29; read-out: GI50 HT-29) was 330 nM and the CC50 (HT-29; read-out: LC50 HT-29) was 267 nM.
